Where two headings read alike, the source gives them in different places. Where a SMILES comes first, the peptide text is derived from it. The star is where a group is joined. Tos = Cc1ccc(S(=O)(=O)*)cc1; Bn = c1ccc(C*)cc1
Columns and labels:
[1] = target: APE-1 activity in T98G cell nuclear lysates (Homo sapiens (Human), UniProt P27695); assay: Molecular beacon assay in T98G cell nuclear extracts; assay type: biochemical
Protocol: Isolation and Assay of APE-1 Protein from Nuclear Extracts of Glioma Cells. Human glioblastoma cells (T98G) were maintained in growth medium, i.e., Eagle's Minimum Essential Medium (EMEM) with 10% fetal bovine serum (FBS), […] gentamycin, 1×MEM non-essential amino acids and 1 mM sodium pyruvate. Cells were harvested by Trypsin-EDTA treatment, washed with 1×PBS and nuclear proteins isolated using the CelLytic NuCLEAR Extraction kit (Sigma-Aldrich) as per manufacturer's instructions. Isolated nuclear proteins were estimated colorimetrically (BCA protein assay) and stored at −80° C. (long term) or at −20° C. during regular use. To assay APE-1 activity in T98G cells, nuclear extracts were serially diluted in 10 mM HEPES, 50 mM KCl, 1 mM DTT, 20% (v/v) glycerol and the activities measured via the molecular beacon assay (as described above). […] EC2 nM of nuclear extracts was incubated with 2 to 500 nM hairpin DNA substrate and the V0 measured for each value of [S]. Finally, the apparent KM* was deduced using the software algorithm in Prism (as described previously), and the KM* was used to determine the apparent Ki*. Inhibition of EC2 nM APE-1 activity by the inhibitors was assayed via the molecular beacon assay (described above).
Inhibition of APE-1 Activity in Nuclear Lysates. The ability of 1-5 and 8 to block APE-1 endonuclease activity in a complex mixture of proteins from T98G cell nuclear lysates was tested using the molecular beacon assay. The APE-1 activity in the lysates was standardized to give ˜90% turnover of 25 nM substrate in 10 min.

[2] = test system: aldehyde reactive sites in genomic DNA from T98G cells; assay type: cell-based, human; conditions: for effect on ARS: 0.25 μM compound alone
Protocol: Quantification of Abasic Sites. T98G cells maintained in growth medium, were harvested by Trypsin-EDTA treatment, resuspended in fresh growth medium at a density of 2.5×10^5 cells mL^−1, and 2 mL (5×10^5 cells) of this suspension was seeded into the wells of a sterile 6-well tissue culture plate. Cells were allowed to grow for 24 h, treated with the various compounds for different time points and/or at different concentrations. At the end of each treatment, adherent cells were harvested by trypsin-EDTA treatment and pooled with live and dead cells in culture supernatant. Pooled cells in suspension were pelleted by centrifugation, washed with 1×PBS and genomic DNA was isolated using the DNAzol reagent (Invitrogen). DNA in solution was quantified by UV absorbance (λ260 nm) using a Synergy H1 multiwell plate reader (BioTek, Winooski, Vt.). Abasic sites in purified DNA were then reacted with the biotin-conjugated aldehyde reactive probe (ARP), immobilized onto 96-well ELISA plates, and detected using horseradish peroxidase (HRP)-conjugated streptavidin using a colorimetric substrate as per manufacturer's instructions (Dojindo Molecular Technologies, Rockville, Md.).
The biotin tagged ARS are quantified using an avidin-biotin assay, followed by colorimetric detection with horseradish peroxidase conjugated to avidin.

[3] = target: T1, APE-1 (Homo sapiens (Human), UniProt P27695); assay: Gel-based excision assay for APE-1 inhibitors; assay type: biochemical; conditions: APE-1 cleaved fragment vs. full length DNA substrate
T1 sequence (P27695 whole entry, the tested form may be a part): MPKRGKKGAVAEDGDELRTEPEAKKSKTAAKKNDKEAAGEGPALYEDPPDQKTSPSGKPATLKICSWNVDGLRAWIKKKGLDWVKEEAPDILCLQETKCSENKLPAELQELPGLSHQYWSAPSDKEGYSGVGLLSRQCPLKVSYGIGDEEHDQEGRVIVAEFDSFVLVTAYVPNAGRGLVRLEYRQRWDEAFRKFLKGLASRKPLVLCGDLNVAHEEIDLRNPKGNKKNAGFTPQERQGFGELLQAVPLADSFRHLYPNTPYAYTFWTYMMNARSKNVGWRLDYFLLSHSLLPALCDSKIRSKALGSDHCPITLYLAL
Protocol: (§1) Screening for APE-1 Inhibitors. […] In this assay, the DNA hairpin substrate has a 6-FAM fluorophore on the 5′-terminus, a DABACYL fluorescence quencher on the 3′-terminus and a THF abasic site located 6 base pairs from the 5′-terminus in the stem region (FIG. 6). APE-1 activity is monitored as an increase in fluorescence due to the release of the 5′-(6-FAM)-GCACT fragment as a function of time. […] In this assay, substrate turnover was calculated from relative intensities of cleaved vs. intact oligomers and correlated with inhibitor concentration.

[4] = test system: T98G cells; assay: Potentiation of MeLex cytotoxicity, short term (72 h) MTS assay; assay type: cell-based, human; conditions: 72 h MTS assay
Protocol: (§2) Cytotoxic Potentiation of Various DNA Damaging Agents. T98G cells maintained in growth medium were resuspended in fresh growth medium and seeded into 96-well plates at 2000 cells/well (short term cytotoxicity) or 100 cells/well (long term cytotoxicity) as described in the previous section. After 24 h, the cells were treated with serial dilutions of various DNA damaging drugs in absence or presence of APE-1 inhibitors. At the end of the treatment period, cell survival was assayed using CellTiter 96 AQueous or CyQUANT kits for the short- and long-term studies respectively.
(§3) Toxicity. It was assumed that inhibition of APE-1 activity would be lead to toxicity since genetic deletion of the protein is lethal to cells. […] The toxicities were also determined in combination with the DNA minor groove methylating agent, MeLex. MeLex efficiently and selectively generates N3-methyladenine, which is converted into an abasic site by a BER glycosylase and/or hydrolytic depurination. The T98G cell line is relatively resistant to DNA damaging anticancer agents due to expression of multiple drug resistance proteins and O^6-alkylguanine-DNA alkyltransferase. […] A goal of the development of APE-1 inhibitors is to determine if they can be used to enhance the activity of DNA alkylating agents.

[5] = test system: T98G cells; assay: Potentiation of MeLex cytotoxicity, long term (10 d) CyQUANT assay; assay type: cell-based, human
Protocol: as §2, §3

[6] = test system: T98G cells; assay: Long term (10-day) CyQUANT cytotoxicity assay; assay type: cell-based, human; conditions: long term assay
Protocol: (§4) Cytotoxic Effects of APE-1 Inhibitors on Cultured Human Glioblastoma (T98G) Cells. Human glioblastoma cells (T98G) were maintained in growth medium as described above. […] The cells were allowed to attach and grow for 24 h, and then treated with serial dilutions of the drug for 72 h. After treatment, viable cells were measured by an MTS assay using the CellTiter 96 AQueous kit (Promega) as per manufacturer's instructions. […] The cells were allowed to attach and grow for 24 h and treated with serial dilutions of the drug for 240 h. After treatment, viable cells were measured using the CyQUANT cell proliferation assay kit (Invitrogen) as per manufacturer's instructions.
as §3

[7] = test system: T98G cells; assay: Short term (72 h) MTS cytotoxicity assay; assay type: cell-based, human; conditions: 72 h MTS assay
Protocol: as §4, §3

[8] = target: T1, APE-1; assay: Molecular beacon assay for APE-1 endonuclease inhibition; assay type: biochemical; conditions: molecular beacon assay, endonuclease activity
From the text: Screening Assays for APE1 Inhibition—The initial screen was designed to look at the effect of potential inhibitors on APE1 repair kinetics. The approach can be used as a high throughput screen by choosing a specific timepoint to monitor. The screen utilizes a molecular beacon with a tetrahydrofuran (THF) abasic site within the stem region of a DNA hairpin that has a fluorophore on the 5′-terminus and a quencher on the 3′-terminus (FIG. 2a). […] An example of the molecular beacon screen and the excision assay are shown in FIGS. 2b,c and 2d, respectively.
Molecular Beacon Assay for Screening of APE-1 Inhibitors. A fluorescence-based molecular beacon assay to measure APE-1 protein activity and inhibition was performed as described previously with some modifications. Tang et al. Neuro Oncol. 13, 471-486 (2011) APE-1 (2 nM) in 10 mM HEPES (pH 7.8) 0.5 mM MgCl, 100 mM NaCl, 100 mM KCl, 0.0005% (w/v) BSA, was incubated with 20 nM 5′-(F)-CGACTXTTGAATTGACACGCCATGTCGATCAATTCAATAGTCG-(D)-3′ [X=tetrahydrofuran (THF) abasic site modification; F, 6-carboxyfluorescein (6-FAM); and D, DABCYL] that forms a hairpin with a 15 base pair stem and a 13 base loop. The THF modification is a known substrate for APE-1 excision. APE-1 mediated cleavage of the phosphodiester backbone at the THF-abasic site led to release of the 5′ 6-FAM (fluorophore) containing pentanucleotide, disrupting the Förster Resonance Energy Transfer (FRET) mediated quenching of the 6-FAM by DABCYL in the native hairpin oligomer. Since the signal was generated by continuous liberation of the fluorophore-labeled excision fragment, progress of this reaction could be monitored in real-time using a Cary Eclipse fluorescence spectrometer (Varian, Palo Alto, Calif.) or a Synergy H1 multi-well plate reader (BioTek, Winooski, Vt.). Reactions were optimized to yield ˜90% substrate turnover in 10 min, and fluorescence intensities measured every 12 s at 495 nm excitation and 520 nm emission. Data from the first 1-3 min of the assays (linear phase) were used to determine rate of substrate turnover (V0). The Michaelis constant (KM) was deduced experimentally, by incubating 2 nM APE-1 protein with 2-500 nM hairpin DNA substrate and measuring V0 —the experimentally observed V0 were analyzed as a function of substrate concentration [S] via non-linear regression using Prism (v.4; GraphPad Software, Inc., La Jolla, Calif.) and the KM was calculated as per the algorithm in the software package. To assay inhibition, 2 nM APE-1 protein was pre-incubated with 0.05-10.00 μM of the candidate inhibitors at 25° C. for 60 min, before initiating the excision assay by addition of hairpin DNA substrate. V0 was calculated at various concentrations of inhibitors and represented as inverse function of increasing inhibitor concentration [I]. […] All assays were carried out in three independent sets to obtain mean data and standard error of mean.
as §1

[9] = target: THF modified hairpin DNA; assay: EtBr fluorescence titration with hairpin DNA; assay type: binding
Protocol: (§5) Fluorescence and UV Spectrometry Binding Studies. The fluorescence spectra were measured at room temperature on a Cary Eclipse fluorescence spectrometer (Varian, Palo Alto, Calif.). The fluorescence properties of 1 and 4 were measured in 10 mM HEPES, 0.5 mM MgCl2, 100 mM KCl, 100 mM NaCl, 2% glycerol, in absence or presence of wild type (unmodified) hairpin DNA (5′-[…]-3′) or THF-modified hairpin DNA (5′-[…]-3′) or APE-1 protein. A solution of 0.5 μM of either DNA sequence was titrated against 1-10 μM ethidium bromide (EtBr) to determine saturation of EtBr by fluorescence (530 nm excitation with 610 nm emission) and the subsequent displacement of EtBr (4 μM) by 1-20 μM 1 or 4 was also assayed. The APE protein-inhibitor binding fluorescence was assayed by titrating 0.1-20 μM of 4 against 1 μM of APE-1 protein.
(§6) Interaction of Inhibitors with DNA. A potential mechanism by which compounds can block APE-1 activity involves the interaction with the DNA substrate by intercalation. Such binding to DNA could sterically reduce the accessibility of the protein to the abasic site substrate. […] To further probe the potential role of intercalation, the effect of EtBr on the fluorescence of 1 and 4 were determined. […] The small changes in the fluorescence of 4 with both DNAs indicate little discrimination for the THF lesion.

[10] = target: unmodified hairpin DNA; assay: EtBr fluorescence titration with hairpin DNA; assay type: binding
Protocol: as §5, §6

[11] = target: double-stranded DNA; conditions: cited from earlier work
[12] = read-out: Ki APE-1 endonuclease inhibition
[13] = read-out: Ki APE-1 endonuclease inhibition (ND classes)

APE-1 activity in T98G cell nuclear lysates, sequence (P27695 whole entry, stated change not applied): as the sequence (P27695 whole entry, the tested form may be a part) above

Structure (SMILES) | Ki [8, 12] [µM] | Ki [8, 13] [µM] | further results
C/C(=N\Nc1cc(C)nc2cc3c(cc12)OCO3)c1cn(C)n(-c2ccccc2)c1=O [Compound 1] | 0.18 |  | Ki [1]: 0.45 µM; level of ARS in combination with MeLex ([2]; 80 μM MeLex + 0.25 μM inhibitor, through at least 12 h): 50 sites/10^5 nucleotides; IC50 [3]: 4.4 µM; LD50 of MeLex in the presence of LD10 concentration of inhibitor [4]: 54 µM; LD50 of MeLex in the presence of LD10 concentration of inhibitor [5]: 2.0 µM; LD10 concentration [6]: 0.17 µM; LD10 concentration [7]: 2.20 µM
COc1cccc(/C=N/Nc2cc(C)nc3cc4c(cc23)OCO4)c1 [Compound 2] | 0.22 |  | Ki [1]: 0.24 µM; IC50 [3]: 10.1 µM
Cc1cc(N/N=C/c2ccc([N+](=O)[O-])o2)c2cc3c(cc2n1)OCO3 [Compound 6] | 0.64 |  | 
C/C(=N\Nc1cc(C)nc2ccc(C)cc12)c1cn(C)n(-c2ccccc2)c1=O [Compound 7] | 10.9 |  | 
C/C(=N\Nc1cc(C)c2ccccc2n1)c1cn(C)n(-c2ccccc2)c1=O [Compound 8] |  | > 100 | effect on ARS [2]: same as background; IC50 [3]: > 100 µM
C=C(C[N+](=O)[O-])NC(CCCCNc1ccc([N+](=O)[O-])cc1N(O)O)C(=O)O (stereo not shown) [Compound 9] | 13 |  | 
C/C=C/C(=O)NCCCCNC(=O)/C=C/c1ccc([N+](=O)[O-])cc1 [Compound 10] | 17 |  | 
COc1ccc(/C(Cc2ccccc2)=N\Nc2ccc([N+](=O)[O-])c([N+](=O)[O-])c2)cc1 [Compound 11] | 6.7 |  | 
COc1ccc(C2C3=C(CC(C)(C)CC3=O)Oc3cc4c(cc32)OCO4)c(OC)c1 (stereo not shown) [Compound 12] | 32 |  | 
N=c1[nH]nc2nc(CC(=O)c3ccccc3[N+](=O)[O-])c(CC(=O)c3ccccc3[N+](=O)[O-])nn12 [Compound 13] | 4.9 |  | 
O=C(/C=C(/Nc1ccccc1)C(=O)c1ccccc1)c1ccccc1 [Compound 14] | 37 |  | 
O=C(NNc1ccnc2cc(Cl)ccc12)/C(=C/c1ccccc1Cl)NC(=O)c1ccccc1 [Compound 15] |  | > 100 | 
Nc1ncnc2c1ncn2C1OC(C(=O)NCC(=O)O)C(O)C1O (stereo not shown) [Compound 16] |  | > 100 | 
CC(N)C(=O)NC1C(CO)OC(n2cnc3c(N)ncnc32)C1O (stereo not shown) [Compound 17] |  | > 100 | 
O=C(O)CC1(CC(=O)NCCc2c[nH]c3ccccc23)OCCO1 [Compound 18] |  | > 100 | 
O=C(O)C(Cc1c[nH]c2ccc(O)cc12)NCC1(O)OCC(O)C(O)C1O (stereo not shown) [Compound 19] |  | > 100 | 
Cn1c(=N)[nH]c2c(nc(OCc3ccccc3)n2C2OC(O)C(O)C2O)c1=O (stereo not shown) [Compound 21] |  | > 100 | 
CC(NC(=O)/C(=C/c1ccccc1)NC(=O)c1ccccc1)c1ccccc1 (stereo not shown) [Compound 22] |  | > 100 | 
Cc1ccc(S(=O)(=O)NC(CSCc2ccccc2)C(=O)NC(Cc2ccc(O)cc2)C(=O)O)cc1 (stereo not shown) [Compound 25] (Tos-Cys(Bn)-Tyr-OH; configuration not given here) |  | > 100 | 
CCOC(=O)CC/C(=C\NC(=O)c1ccccc1)NC(=O)c1ccccc1 [Compound 26] |  | > 100 | 
Cc1cc2cc3c(cc2n2c(SCC(=O)N4c5ccccc5CCc5ccccc54)nnc12)OCO3 [Compound 28] |  | > 100 | 
CCc1cc2cc(C)c(C)cc2nc1SCC(=O)N1CCN(C(=O)c2ccco2)CC1 [Compound 29] |  | > 100 | 
CC(=O)N1N=C(c2cccc(NS(C)(=O)=O)c2)CC1c1cc2cc(C)c(C)cc2nc1Cl (stereo not shown) [Compound 30] |  | > 100 | 
CC[n+]1c(-c2ccccc2)c2cc(N)ccc2c2ccc(N)cc21 [EtBr, ethidium bromide] | 1.8 |  | effect on ARS [2]: no effect; level of ARS in combination with MeLex ([2]; 80 μM MeLex + 0.25 μM compound, after 6 h): dropped off; Kd [9]: 1.8 µM; Kd [10]: 1.6 µM; Kd [11]: ~1 µM
